Assay results published in patent publication US20250179047A1, “5-[7-(3,4-DIHYDRO-1H-ISOQUINOLINE-2-CARBONYL)-1,2,3,4 TETRAHYDROISOQUINOLIN-6-YL]-1H-PYRROLE-3-CARBOXAMIDE DERIVATIVES, PHARMACEUTICAL COMPOSITIONS CONTAINING THEM AND THEIR USES AS PRO-APOPTOTIC AGENTS” (LES LABORATOIRES SERVIER, priority 2022, published 2025).

Legend:
BCL2 G101V [1] = target: BCL2 G101V (Homo sapiens, UniProt P10415, G101V); test: TR-FRET competitive binding assay, BCL2 G101V; details: BCL2 G101V; Ki determined from IC50; read-out: TR_FRET EKI_Bcl2 G101V
Procedure, shortened: (§1)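 Competitive TR-FRET displacement of fluorescein-PUMA peptide (2 or 20 nM) from 0.5 nM terbium-labelled N-terminal Halo-fusion BCL2 (1-207, wild type or mutant) or BCLXL (2-196), expressed in E. coli. Buffer 50 mM Hepes pH 7.5, 150 mM NaCl, 5% DMSO; 2 h at 23°C. 520/495 nm ratio fitted over 11 points for IC50, converted to Ki.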

BCL2 G101V [2] = test: TR-FRET competitive binding assay, BCL2 G101V; design: species or system human; details: ratio Ki BCL2 G101V / Ki BCL2 WT
Procedure, shortened: as §1

KMS-12-PE Bcl-2 G101V = test: In vitro cytotoxicity CellTiter-Glo 48 h, KMS-12-PE Bcl-2 G101V; assay type: cell-based; details: for Ratio (G101V/WT): C50 KMS-12-PE Bcl-2 G101V over C50 KMS-12-PE Bcl-2 WT; for IC50: 48 h, CellTiter-Glo, C50 = concentration needed to reach 50% of the cellular viability
Method: KMS-12-PE (ACC 606) were purchased from the Leibniz-Institute DSMZ (Braunschweig, Germany) and were grown at 37° C. in a humidified atmosphere with […] in media recommended by the suppliers. Lentiviral particles containing Bcl-2 wild type (also named “Bcl2 WT”) and Bcl-2 mutated on G101V (also named “Bcl2 G101V”) were cloned into pcLV-CMV-DEST-IRES-TagRFP. Lentiviral particles (1×106) were mixed with Polybrene at 8 µg/ml and transduced by spinoculation for 1 h at 32° C. and incubated overnight. After 8 days, TagRFP positive-cells were sorted by FACS. BCL2 expression was monitored by immunoblotting using anti-Flag and anti-BCL2 antibodies.
Cellular viability was monitored with the cell viability assay (CellTiter-Glo®) on KMS-12-PE WT and G101V cell lines. The CellTiter-Glo® (CTG) Luminescent Cell Viability Assay (from Promega) is a homogeneous method to determine the number of viable cells in culture based on quantitation of the ATP present, which signals the presence of metabolically active cells.
Dose response of compounds are performed with 10 mM stock solutions (DMSO), 11-points curve, in a 384-well compound plate. The assay plate is prepared by stamping 40 nL from compound dilution plate of all different concentrations (e.g. 10 mM to have final […] assay test) into a cell culture microplate, using Echo acoustic liquid handling (Labcyte, Beckman). 40 μl of cell solution is added and cells are incubated with compounds for 48 h at 37° C., 5% CO2. CTG was added to the cells (according to the manufacturer instructions) and luminescence intensity was recorded using the Pherastar plate reader (BMG).
This assay provides in vitro cellular potency of the tested Bcl-2 inhibitors, measuring the C50, defined as the concentration needed to reach 50% of the cellular viability.

BCL2 WT = BCL2 WT (Homo sapiens (Human), UniProt P10415); test: TR-FRET competitive binding assay, BCL2 WT; details: Ki determined from IC50, read-out: TR_FRET EKI_Bcl2 WT
Procedure, shortened: as §1

BCLXL WT = BCLXL WT (Homo sapiens (Human), UniProt Q07817); test: TR-FRET competitive binding assay, BCLXL WT; details: for Ki: BCLXL WT, Ki determined from IC50, read-out: TR_FRET EKI BclxL; for TR_FRET EKI BCLxL/WT selectivty ratio: ratio Ki BCLxL / Ki BCL2 WT
Procedure, shortened: as §1

KMS-12-PE Bcl-2 WT = test: In vitro cytotoxicity CellTiter-Glo 48 h, KMS-12-PE Bcl-2 WT; assay type: cell-based; details: C50 = concentration needed to reach 50% of the cellular viability
Procedure, shortened: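 Viability measured by CellTiter-Glo luminescence after 48 h compound exposure (11-point curve, 37 °C, 5% CO2). Cells: KMS-12-PE transduced with wild-type or G101V-mutant Bcl-2, FACS-sorted for TagRFP. Reported C50 = concentration reaching 50% cellular viability.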

BCL2 D103Y = BCL2 D103Y (Homo sapiens, UniProt P10415, D103Y); test: TR-FRET competitive binding assay, BCL2 D103Y; details: Ki determined from IC50, read-out: TR_FRET EKI_Bcl2 D103Y
Procedure, shortened: as §1

BCLXL WT, sequence (Q07817 other isoform, or with tags, fused parts or gaps): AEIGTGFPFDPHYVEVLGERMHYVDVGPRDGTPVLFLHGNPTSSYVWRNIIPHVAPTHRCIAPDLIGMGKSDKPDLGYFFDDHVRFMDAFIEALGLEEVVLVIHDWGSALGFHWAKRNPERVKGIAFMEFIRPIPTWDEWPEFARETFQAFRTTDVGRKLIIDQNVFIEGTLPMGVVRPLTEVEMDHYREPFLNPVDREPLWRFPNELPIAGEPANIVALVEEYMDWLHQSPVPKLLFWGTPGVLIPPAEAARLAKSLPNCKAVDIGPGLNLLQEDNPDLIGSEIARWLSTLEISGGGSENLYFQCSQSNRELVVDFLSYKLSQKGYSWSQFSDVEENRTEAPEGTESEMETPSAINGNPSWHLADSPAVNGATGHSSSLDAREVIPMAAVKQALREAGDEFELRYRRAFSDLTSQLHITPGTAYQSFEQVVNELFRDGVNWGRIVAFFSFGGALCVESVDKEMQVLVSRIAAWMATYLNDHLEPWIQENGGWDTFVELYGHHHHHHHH

Cc1c(N(C(=O)c2cc(-c3cc4c(cc3C(=O)N3Cc5ccccc5C[C@H]3C)CN(C(=O)Cc3ccc([C@H]5C[C@@H]5N5CCOCC5)cc3F)CC4)n(C)c2C)c2ccc(O)cc2)cc(C#N)n1C (single isomer, unassigned) [Example 70, N-(5-cyano-1,2-dimethyl-pyrrol-3-yl)-5-[2-[2-[2-fluoro-4-[(1S,2R) or (1R,2S)-2-morpholinocyclopropyl]phenyl]acetyl]-7-[(3R)-3-methyl-3,4-dihydro-1H-isoquinoline-2-carbonyl]-3,4-dihydro-1H-isoquinolin-6-yl]-N-(4-hydroxyphenyl)-1,2-dimethyl-pyrrole-3-carboxamide]
Ki (BCL2 G101V [1]): 0.9 nM | TR_FRET EKI G101V/WT selectivty ratio (BCL2 G101V [2]): 8.4 | Ratio (G101V/WT) (KMS-12-PE Bcl-2 G101V): 8.32 | IC50 (KMS-12-PE Bcl-2 G101V; Homo sapiens, KMS-12-PE): 0.0629 µM | Ki (BCL2 WT): 0.11 nM | Ki (BCLXL WT): 2.3 nM | TR_FRET EKI BCLxL/WT selectivty ratio (BCLXL WT): 20.9 | IC50 (KMS-12-PE Bcl-2 WT; Homo sapiens, KMS-12-PE): 0.0076 µM | Ki (BCL2 D103Y): 0.29 nM

Cc1c(N(C(=O)c2cc(-c3cc4c(cc3C(=O)N3Cc5ccccc5C[C@H]3C)CN(C(=O)Cc3ccc(OCCN5CCOC(C)C5)cc3F)CC4)n(C)c2C)c2ccc(O)cc2)cc(C#N)n1C (single isomer, unassigned) [Example 75, N-(5-cyano-1,2-dimethyl-1H-pyrrol-3-yl)-5-[2-(2-{2-fluoro-4-[2-((2S or R)-2-methylmorpholin-4-yl)ethoxy]phenyl}acetyl)-7-[(3R)-3-methyl-1,2,3,4-tetrahydroisoquinoline-2-carbonyl]-1,2,3,4-tetrahydroisoquinolin-6-yl]-N-(4-hydroxyphenyl)-1,2-dimethyl-1H-pyrrole-3-carboxamide]
Ki (BCL2 G101V [1]): 0.5 nM | TR_FRET EKI G101V/WT selectivty ratio (BCL2 G101V [2]): 3.7 | Ratio (G101V/WT) (KMS-12-PE Bcl-2 G101V): 3.93 | IC50 (KMS-12-PE Bcl-2 G101V; Homo sapiens, KMS-12-PE): 0.0147 µM | Ki (BCL2 WT): 0.13 nM | Ki (BCLXL WT): 1.4 nM | TR_FRET EKI BCLxL/WT selectivty ratio (BCLXL WT): 10.8 | IC50 (KMS-12-PE Bcl-2 WT; Homo sapiens, KMS-12-PE): 0.0037 µM | Ki (BCL2 D103Y): 0.28 nM

Cc1c(C(=O)N(c2ccc(O)cc2)c2cc(C#N)n(CC3CCOC3)c2C)cc(-c2cc3c(cc2C(=O)N2Cc4ccccc4C[C@H]2C)CN(C(=O)Cc2ccc(OCCN4CCOCC4)cc2F)CC3)n1C (single isomer, unassigned) [Example 84, N-[5-cyano-2-methyl-1-((3S or R)-tetrahydrofuran-3-ylmethyl)pyrrol-3-yl]-5-[2-[2-[2-fluoro-4-(2-morpholinoethoxy)phenyl]acetyl]-7-[(3R)-3-methyl-3,4-dihydro-1H-isoquinoline-2-carbonyl]-3,4-dihydro-1H-isoquinolin-6-yl]-N-(4-hydroxyphenyl)-1,2-dimethyl-pyrrole-3-carboxamide]
Ki (BCL2 G101V [1]): 1 nM | TR_FRET EKI G101V/WT selectivty ratio (BCL2 G101V [2]): 5.9 | Ratio (G101V/WT) (KMS-12-PE Bcl-2 G101V): 4.83 | IC50 (KMS-12-PE Bcl-2 G101V; Homo sapiens, KMS-12-PE): 0.0353 µM | Ki (BCL2 WT): 0.16 nM | Ki (BCLXL WT): 1.8 nM | TR_FRET EKI BCLxL/WT selectivty ratio (BCLXL WT): 11.3 | IC50 (KMS-12-PE Bcl-2 WT; Homo sapiens, KMS-12-PE): 0.0073 µM | Ki (BCL2 D103Y): 0.43 nM

Cc1c(N(C(=O)c2cc(-c3cc4c(cc3C(=O)N3Cc5ccccc5C[C@H]3CN3CCCCC3)CN(C(=O)Cc3ccc(OCC(C)N5CCOCC5)cc3)CC4)n(C)c2C)c2ccc(O)cc2)cc(C#N)n1C (single isomer, unassigned) [Example 128, N-(5-cyano-1,2-dimethyl-1H-pyrrol-3-yl)-N-(4-hydroxyphenyl)-1,2-dimethyl-5-[2-(2-{4-[(2R or S)-2-(morpholin-4-yl)propoxy]phenyl}acetyl)-7-[(3S)-3-[(piperidin-1-yl)methyl]-1,2,3,4-tetrahydroisoquinoline-2-carbonyl]-1,2,3,4-tetrahydroisoquinolin-6-yl]-1H-pyrrole-3-carboxamide]
Ki (BCL2 G101V [1]): 0.4 nM | TR_FRET EKI G101V/WT selectivty ratio (BCL2 G101V [2]): 6.9 | Ratio (G101V/WT) (KMS-12-PE Bcl-2 G101V): 5.95 | IC50 (KMS-12-PE Bcl-2 G101V): 0.0613 µM | Ki (BCL2 WT): 0.06 nM | Ki (BCLXL WT): 5.4 nM | TR_FRET EKI BCLxL/WT selectivty ratio (BCLXL WT): 93.1 | IC50 (KMS-12-PE Bcl-2 WT): 0.0103 µM | Ki (BCL2 D103Y): 0.21 nM

Cc1c(N(C(=O)c2cc(-c3cc4c(cc3C(=O)N3Cc5ccccc5C[C@H]3CN3CCCCC3)CN(C(=O)Cc3ccc(OCC(C)N5CCOCC5)cc3F)CC4)n(C)c2C)c2ccc(O)cc2)cc(C#N)n1C (single isomer, unassigned) [Example 141, N-(5-cyano-1,2-dimethyl-1H-pyrrol-3-yl)-5-[2-(2-{2-fluoro-4-[(2R or S)-2-(morpholin-4-yl)propoxy]phenyl}acetyl)-7-[(3S)-3-[(piperidin-1-yl)methyl]-1,2,3,4-tetrahydroisoquinoline-2-carbonyl]-1,2,3,4-tetrahydroisoquinolin-6-yl]-N-(4-hydroxyphenyl)-1,2-dimethyl-1H-pyrrole-3-carboxamide]
Ki (BCL2 G101V [1]): 0.3 nM | TR_FRET EKI G101V/WT selectivty ratio (BCL2 G101V [2]): 4.7 | Ratio (G101V/WT) (KMS-12-PE Bcl-2 G101V): 2.2379 | IC50 (KMS-12-PE Bcl-2 G101V): 0.019 µM | Ki (BCL2 WT): 0.06 nM | Ki (BCLXL WT): 1.1 nM | TR_FRET EKI BCLxL/WT selectivty ratio (BCLXL WT): 17.7 | IC50 (KMS-12-PE Bcl-2 WT): 0.0085 µM | Ki (BCL2 D103Y): 0.2 nM

Cc1c(C(=O)N(c2ccc(O)cc2)c2cc(C#N)n(C(F)F)c2C)cc(-c2cc3c(cc2C(=O)N2Cc4ccccc4C[C@H]2CN2CCCCC2)CN(C(=O)Cc2ccc(OCCN4CCOC(C)C4)cc2F)CC3)n1C (single isomer, unassigned) [Example 162, N-[5-cyano-1-(difluoromethyl)-2-methyl-pyrrol-3-yl]-5-[2-[2-[2-fluoro-4-[2-((2R or S)-2-methylmorpholin-4-yl)ethoxy]phenyl]acetyl]-7-[(3S)-3-(1-piperidylmethyl)-3,4-dihydro-1H-isoquinoline-2-carbonyl]-3,4-dihydro-1H-isoquinolin-6-yl]-N-(4-hydroxyphenyl)-1,2-dimethyl-pyrrole-3-carboxamide]
Ki (BCL2 G101V [1]): 0.6 nM | TR_FRET EKI G101V/WT selectivty ratio (BCL2 G101V [2]): 4.8 | Ratio (G101V/WT) (KMS-12-PE Bcl-2 G101V): 5.0958 | IC50 (KMS-12-PE Bcl-2 G101V; Homo sapiens, KMS-12-PE): 0.0319 µM | Ki (BCL2 WT): 0.13 nM | Ki (BCLXL WT): 9.2 nM | TR_FRET EKI BCLxL/WT selectivty ratio (BCLXL WT): 70.8 | IC50 (KMS-12-PE Bcl-2 WT; Homo sapiens, KMS-12-PE): 0.0063 µM | Ki (BCL2 D103Y): 0.3 nM

Cc1c(N(C(=O)c2cc(-c3cc4c(cc3C(=O)N3Cc5ccccc5C[C@H]3CN3CCCCC3)CN(C(=O)Cc3ccc(OCCC5COCCO5)cc3F)CC4)n(C)c2C)c2ccc(O)cc2)cc(C#N)n1C (single isomer, unassigned) [Example 174, N-(5-cyano-1,2-dimethyl-pyrrol-3-yl)-5-[2-[2-[4-[2-((2S or R)-1,4-dioxan-2-yl)ethoxy]-2-fluoro-phenyl]acetyl]-7-[(3S)-3-(1-piperidylmethyl)-3,4-dihydro-1H-isoquinoline-2-carbonyl]-3,4-dihydro-1H-isoquinolin-6-yl]-N-(4-hydroxyphenyl)-1,2-dimethyl-pyrrole-3-carboxamide]
Ki (BCL2 G101V [1]): 0.5 nM | TR_FRET EKI G101V/WT selectivty ratio (BCL2 G101V [2]): 7.8 | Ratio (G101V/WT) (KMS-12-PE Bcl-2 G101V): 5.6751 | IC50 (KMS-12-PE Bcl-2 G101V; Homo sapiens, KMS-12-PE): 0.0248 µM | Ki (BCL2 WT): 0.07 nM | Ki (BCLXL WT): 2.6 nM | TR_FRET EKI BCLxL/WT selectivty ratio (BCLXL WT): 38.8 | IC50 (KMS-12-PE Bcl-2 WT; Homo sapiens, KMS-12-PE): 0.0044 µM | Ki (BCL2 D103Y): 0.3 nM

Cc1c(N(C(=O)c2cc(-c3cc4c(cc3C(=O)N3Cc5ccccc5C[C@H]3C)CN(C(=O)Cc3ccccc3C#N)CC4)n(C)c2C)c2ccc(O)cc2)cc(C#N)n1C [Example 12, N-(5-cyano-1,2-dimethyl-1H-pyrrol-3-yl)-5-{2-[2-(2-cyanophenyl)acetyl]-7-[(3R)-3-methyl-1,2,3,4-tetrahydroisoquinoline-2-carbonyl]-1,2,3,4-tetrahydroisoquinolin-6-yl}-N-(4-hydroxyphenyl)-1,2-dimethyl-1H-pyrrole-3-carboxamide]
Ki (BCL2 G101V [1]): 1.7 nM | TR_FRET EKI G101V/WT selectivty ratio (BCL2 G101V [2]): 7.7 | Ratio (G101V/WT) (KMS-12-PE Bcl-2 G101V): 9.14 | IC50 (KMS-12-PE Bcl-2 G101V; Homo sapiens, KMS-12-PE): 0.0676 µM | Ki (BCL2 WT): 0.22 nM | IC50 (KMS-12-PE Bcl-2 WT; Homo sapiens, KMS-12-PE): 0.0074 µM | Ki (BCL2 D103Y): 0.4 nM
